Key:
γH2A.X in 7SM0032 cells = test: Western blot; type: cell-based, human; conditions: 500 nM
Procedure: (§1) Cells were dissolved into the Laemmli sample buffer on the plate. The whole cell extracts were sonicated, and the proteins in the lysate were resolved using a 4-12% SDS polyacrylamide gel, and the resolved proteins were blotted onto a nitrocellulose membrane. Antibodies specific to H2A.X, cleaved caspase-3, full-length caspase-3, or cleaved caspase-9 were purchased from Cell Signaling Technology (Danvers, MA). The anti-γH2A.X antibody was purchased from Millipore. The membrane was blocked with 5% nonfat dry milk and incubated individually with each of these antibodies dissolved in the blocking buffer. After incubation with peroxidase-conjugated secondary antibodies, the protein of interest was detected using an ECL kit purchased from Thermo Fisher Scientific (Waltham, MA).

[1] = tested on: γH2A.X, caspase-3 and caspase-9 in SK-N-DZ cells; test: Western blot; type: cell-based, human; conditions: NB cells (SK-N-DZ), 500 nM
Procedure: as §1

SMILES: O=C(CNC(=O)c1cccc2ccccc12)Nc1ccccc1Oc1ccccc1 [AOH1160]
- intracellular γH2A.X level (γH2A.X in 7SM0032 cells): Nor does it increase intracellular γH2A.X level
- caspase activation [1]: activation of caspase-3 and caspase-9
- γH2A.X levels [1]: increases γH2A.X levels
